# Patent publication US10647747B2, “Cyclosporin derivatives and uses thereof” (S&T Global Inc., priority 2010, dated 2020)
# *1 amine or outer side, *2 acyl side, *3 side chain or, on linkers, in order; H or OH if unused. Where a SMILES comes first, the peptide text is derived from it. [ ]: non-standard residue; d: D form. The star is where a group is joined. NMe(dihydroBmt) = CCCC[C@@H](C)[C@@H](O)[C@H](NC)C(=O)O; MeBmt = C/C=C/C[C@@H](C)[C@@H](O)[C@H](NC)C(=O)O; X14 = CCOCOC(C)(C)C[C@@H](C(=O)[*:2])N(C)[*:1]; X11 = CN([C@@H](CC(C)(C)OCCO)C(=O)[*:2])[*:1]; X15 = CSCOC(C)(C)C[C@@H](C(=O)[*:2])N(C)[*:1]; X3 = CC=CCC(C)C(O)C(C(=O)[*:2])N(C)[*:1]; X9 = C=CCOC(C)(C)CC(C(=O)[*:2])N(C)[*:1]; X5 = CSCOC(C)(C)CC(C(=O)[*:2])N(C)[*:1]; X7 = CN(C(SCCCN1CCOCC1)C(=O)[*:2])[*:1]; X4 = CCN(CC)CCSC(C(=O)[*:2])N(C)[*:1]; NMeI = CC[CH](C)[CH](NC)C(=O)O; NMeL = CN[CH](CC(C)C)C(=O)O; NMeV = CN[CH](C(=O)O)C(C)C; dNMeC = CN[C@H](CS)C(=O)O; Et2NCH2CH2 = CCN(CC)CC*; NMeS = CN[CH](CO)C(=O)O; Abu = CC[CH](N)C(=O)O; Sar = CNCC(=O)O
# System: HCV replicon in cell line ET (luc-ubi-neo/ET), Huh7 human hepatoma
# Test: HCV subgenomic replicon assay, luciferase end point
# Type: cell-based
# Conditions: HCV subgenomic replicon, cell line ET (luc-ubi-neo/ET) Huh7, luciferase end point; read-out: Antiviral activity EC50
row,Structure (SMILES),EC50 [nM]
1,"CC=CCC(C)C(O)C1C(=O)NC(CC)C(=O)N(C)C(COCCN(CC)CC)C(=O)N(C)C(C(C)CC)C(=O)NC(C(C)C)C(=O)N(C)C(CC(C)C)C(=O)NC(C)C(=O)NC(C)C(=O)N(C)C(CC(C)C)C(=O)N(C)C(CC(C)C)C(=O)N(C)C(C(C)C)C(=O)N1C [[(R)-(2-(N,N-Diethylamino)ethoxy)methyl-Sar]-3-[N-MeIle]-4-cyclosporin] (cyclo([X3][Abu][NMeS](Et2NCH2CH2)[NMeI]V[NMeL]AA[NMeL][NMeL][NMeV]); configuration not given here)",160
2,CC=CCC(C)C(O)C1C(=O)NC(CC)C(=O)N(C)C(CSCCCN2CCCC2)C(=O)N(C)C(CC(C)(C)OC)C(=O)NC(C(C)C)C(=O)N(C)C(CC(C)C)C(=O)NC(C)C(=O)NC(C)C(=O)N(C)C(CC(C)C)C(=O)N(C)C(CC(C)C)C(=O)N(C)C(C(C)C)C(=O)N1C (stereo not drawn),100
3,CC=CCC(C)C(O)C1C(=O)NC(CC)C(=O)N(C)C(CSCCN(CC)CC(C)(C)C)C(=O)N(C)C(CC(C)(C)O)C(=O)NC(C(C)C)C(=O)N(C)C(CC(C)C)C(=O)NC(C)C(=O)NC(C)C(=O)N(C)C(CC(C)C)C(=O)N(C)C(CC(C)C)C(=O)N(C)C(C(C)C)C(=O)N1C (stereo not drawn),60
4,CC=CCC(C)C(O)C1C(=O)NC(CC)C(=O)N(C)C(COCCN(C)C)C(=O)N(C)C(CC(C)(C)O)C(=O)NC(C(C)C)C(=O)N(C)C(CC(C)C)C(=O)NC(C)C(=O)NC(C)C(=O)N(C)C(CC(C)C)C(=O)N(C)C(CC(C)C)C(=O)N(C)C(C(C)C)C(=O)N1C (stereo not drawn),240
5,CC=CCC(C)C(O)C1C(=O)NC(CC)C(=O)N(C)C(CSCCN(C)C)C(=O)N(C)C(CC(C)(C)OC)C(=O)NC(C(C)C)C(=O)N(C)C(CC(C)C)C(=O)NC(C)C(=O)NC(C)C(=O)N(C)C(CC(C)C)C(=O)N(C)C(CC(C)C)C(=O)N(C)C(C(C)C)C(=O)N1C (stereo not drawn),100
6,CC=CCC(C)C(O)C1C(=O)NC(CC)C(=O)N(C)C(COCCN2CCOCC2)C(=O)N(C)C(CC(C)(C)OC)C(=O)NC(C(C)C)C(=O)N(C)C(CC(C)C)C(=O)NC(C)C(=O)NC(C)C(=O)N(C)C(CC(C)C)C(=O)N(C)C(CC(C)C)C(=O)N(C)C(C(C)C)C(=O)N1C [[(R)-(2-(N-Morpholino)ethoxy)methyl-Sar]-3-[(γ-methoxy)-N-MeLeu]-4-cyclosporin],150
7,C/C=C/C[C@@H](C)[C@@H](O)[C@H]1C(=O)N[C@@H](CC)C(=O)N(C)[C@H](CSCCCN(C)C)C(=O)N(C)[C@@H](CC(C)(C)O)C(=O)N[C@@H](C(C)C)C(=O)N(C)[C@@H](CC(C)C)C(=O)N[C@@H](C)C(=O)N[C@H](C)C(=O)N(C)[C@@H](CC(C)C)C(=O)N(C)[C@@H](CC(C)C)C(=O)N(C)[C@@H](C(C)C)C(=O)N1C,110

# Same assay, conditions: Hepatitis C virus, Huh-7, HCV subgenomic replicon, cell line ET (luc-ubi-neo/ET) Huh7, luciferase end point; read-out: Antiviral activity EC50
row,Structure (SMILES),EC50 [nM]
1,"C/C=C/C[C@@H](C)[C@@H](O)[C@H]1C(=O)N[C@@H](CC)C(=O)N(C)[C@H](C)C(=O)N(CC)[C@@H](C(C)C)C(=O)N[C@@H](C(C)C)C(=O)N(C)[C@@H](CC(C)C)C(=O)N[C@@H](C)C(=O)N[C@H](C)C(=O)N(C)[C@@H](CC(C)C)C(=O)N(C)[C@@H](CC(C)C)C(=O)N(C)[C@@H](C(C)C)C(=O)N1C [[D-N-MeAla]-3-[N-EtVal]-4-cyclosporin, reference compound]",70

# Same assay, conditions: Hepatitis C virus, Huh-7, Table 14, HCV replicon luciferase; read-out: Antiviral activity EC50
row,Structure (SMILES),EC50 [nM]
1,C/C=C/C[C@@H](C)[C@@H](O)[C@H]1C(=O)N[C@@H](CC)C(=O)N(C)[C@H](CSCCN(CC)CC)C(=O)N(C)[C@@H](CC(C)(C)OCOCC)C(=O)N[C@@H](C(C)C)C(=O)N(C)[C@@H](CC(C)C)C(=O)N[C@@H](C)C(=O)N[C@H](C)C(=O)N(C)[C@@H](CC(C)C)C(=O)N(C)[C@@H](CC(C)C)C(=O)N(C)[C@@H](C(C)C)C(=O)N1C (cyclo(A[dA][NMeL][NMeL][NMeV][MeBmt][Abu][dNMeC](Et2NCH2CH2)[X14]V[NMeL])),20
2,C/C=C/C[C@@H](C)[C@@H](O)[C@H]1C(=O)N[C@@H](CC)C(=O)N(C)[C@H](CSCCN2CCN(C)CC2)C(=O)N(C)[C@@H](CC(C)(C)O)C(=O)N[C@@H](C(C)C)C(=O)N(C)[C@@H](CC(C)C)C(=O)N[C@@H](C)C(=O)N[C@H](C)C(=O)N(C)[C@@H](CC(C)C)C(=O)N(C)[C@@H](CC(C)C)C(=O)N(C)[C@@H](C(C)C)C(=O)N1C,30
3,C/C=C/C[C@@H](C)[C@@H](O)[C@H]1C(=O)N[C@@H](CC)C(=O)N(C)[C@H](CSCCN(CC)CC)C(=O)N(C)[C@@H](CC(C)(C)OCSC)C(=O)N[C@@H](C(C)C)C(=O)N(C)[C@@H](CC(C)C)C(=O)N[C@@H](C)C(=O)N[C@H](C)C(=O)N(C)[C@@H](CC(C)C)C(=O)N(C)[C@@H](CC(C)C)C(=O)N(C)[C@@H](C(C)C)C(=O)N1C (cyclo(A[dA][NMeL][NMeL][NMeV][MeBmt][Abu][dNMeC](Et2NCH2CH2)[X15]V[NMeL])),20

# Same assay, conditions: Hepatitis C virus, Huh-7, Table 16, HCV replicon luciferase; read-out: Antiviral activity EC50
row,Structure (SMILES),EC50 [nM]
1,"C/C=C/C[C@@H](C)[C@@H](O)[C@H]1C(=O)N[C@@H](CC)C(=O)N(C)[C@H](C)C(=O)N(CC)[C@@H](C(C)C)C(=O)N[C@@H](C(C)C)C(=O)N(C)[C@@H](CC(C)C)C(=O)N[C@@H](C)C(=O)N[C@H](C)C(=O)N(C)[C@@H](CC(C)C)C(=O)N(C)[C@@H](CC(C)C)C(=O)N(C)[C@@H](C(C)C)C(=O)N1C [[D-N-MeAla]-3-[N-EtVal]-4-cyclosporin, reference compound]",50

# Same assay, conditions: Table 12, HCV replicon luciferase; read-out: Antiviral activity EC50
row,Structure (SMILES),EC50 [nM]
1,CC=CCC(C)C(O)C1C(=O)NC(CC)C(=O)N(C)C(SCCN(CC)CC)C(=O)N(C)C(CC(C)(C)OCSC)C(=O)NC(C(C)C)C(=O)N(C)C(CC(C)C)C(=O)NC(C)C(=O)NC(C)C(=O)N(C)C(CC(C)C)C(=O)N(C)C(CC(C)C)C(=O)N(C)C(C(C)C)C(=O)N1C (stereo not drawn) (cyclo([X3][Abu][X4][X5]V[NMeL]AA[NMeL][NMeL][NMeV]); configuration not given here),110

# Same assay, conditions: Table 13, HCV replicon luciferase; read-out: Antiviral activity EC50
row,Structure (SMILES),EC50 [nM]
1,C/C=C/C[C@@H](C)[C@@H](O)[C@H]1C(=O)N[C@@H](CC)C(=O)N(C)CC(=O)N(C)[C@@H](CC(C)(C)OCSC)C(=O)N[C@@H](C(C)C)C(=O)N(C)[C@@H](CC(C)C)C(=O)N[C@@H](C)C(=O)N[C@H](C)C(=O)N(C)[C@@H](CC(C)C)C(=O)N(C)[C@@H](CC(C)C)C(=O)N(C)[C@@H](C(C)C)C(=O)N1C [[(γ-Methylthio)methoxy-N-MeLeu]-4-cyclospori],400
2,CC=CCC(C)C(O)C1C(=O)NC(CC)C(=O)N(C)C(SCCCN2CCOCC2)C(=O)N(C)C(CC(C)(C)OC)C(=O)NC(C(C)C)C(=O)N(C)C(CC(C)C)C(=O)NC(C)C(=O)NC(C)C(=O)N(C)C(CC(C)C)C(=O)N(C)C(CC(C)C)C(=O)N(C)C(C(C)C)C(=O)N1C [[(S)-3-(N-Morpholino)propylthio-Sar]-3-[(γ-methoxy)-N-MeLeu]-4-cyclosporin],60
3,CCCC[C@@H](C)[C@@H](O)[C@H]1C(=O)N[C@@H](CC)C(=O)N(C)CC(=O)N(C)[C@@H](CC(C)(C)OCCO)C(=O)N[C@@H](C(C)C)C(=O)N(C)[C@@H](CC(C)C)C(=O)N[C@@H](C)C(=O)N[C@H](C)C(=O)N(C)[C@@H](CC(C)C)C(=O)N(C)[C@@H](CC(C)C)C(=O)N(C)[C@@H](C(C)C)C(=O)N1C [[γ-(2-Hydroxyethoxy)-N-MeLeu]-4-dihydrocyclosporin] (cyclo(A[dA][NMeL][NMeL][NMeV][NMe(dihydroBmt)][Abu][Sar][X11]V[NMeL])),430
4,C=CCOC(C)(C)CC1C(=O)NC(C(C)C)C(=O)N(C)C(CC(C)C)C(=O)NC(C)C(=O)NC(C)C(=O)N(C)C(CC(C)C)C(=O)N(C)C(CC(C)C)C(=O)N(C)C(C(C)C)C(=O)N(C)C(C(O)C(C)CC=CC)C(=O)NC(CC)C(=O)N(C)C(SCCCN2CCOCC2)C(=O)N1C [[(S)-3-(N-Morpholino)propylthio-Sar]-3-[(γ-allyloxy)-N-MeLeu]-4-cyclosporin] (cyclo([X3][Abu][X7][X9]V[NMeL]AA[NMeL][NMeL][NMeV]); configuration not given here),150
5,CC=CCC(C)C(O)C1C(=O)NC(CC)C(=O)N(C)C(SCCCN2CCOCC2)C(=O)N(C)C(CC(C)(C)OCSC)C(=O)NC(C(C)C)C(=O)N(C)C(CC(C)C)C(=O)NC(C)C(=O)NC(C)C(=O)N(C)C(CC(C)C)C(=O)N(C)C(CC(C)C)C(=O)N(C)C(C(C)C)C(=O)N1C (stereo not drawn) (cyclo([X3][Abu][X7][X5]V[NMeL]AA[NMeL][NMeL][NMeV]); configuration not given here),160
6,CC=CCC(C)C(O)C1C(=O)NC(CC)C(=O)N(C)CC(=O)N(C)C(CC(C)(C)OC)C(=O)NC(C(C)C)C(=O)N(C)C(CC(C)C)C(=O)NC(C)C(=O)NC(C)C(=O)N(C)C(CC(C)C)C(=O)N(C)C(CC(C)C)C(=O)N(C)C(C(C)C)C(=O)N1C (stereo not drawn) [[(γ-Methoxy)-N-MeLeu]-4-cyclosporin],180

# Same assay, conditions: Table 14, HCV replicon luciferase; read-out: Antiviral activity EC50
row,Structure (SMILES),EC50 [nM]
1,"C/C=C/C[C@@H](C)[C@@H](O)[C@H]1C(=O)N[C@@H](CC)C(=O)N(C)[C@H](CSCCN(C)C)C(=O)N(C)[C@@H](CC(C)(C)O)C(=O)N[C@@H](C(C)C)C(=O)N(C)[C@@H](CC(C)C)C(=O)N[C@@H](C)C(=O)N[C@H](C)C(=O)N(C)[C@@H](CC(C)C)C(=O)N(C)[C@@H](CC(C)C)C(=O)N(C)[C@@H](C(C)C)C(=O)N1C (single isomer, unassigned; isomer b)",50

# Same assay, conditions: Table 16, HCV replicon luciferase; read-out: Antiviral activity EC50
row,Structure (SMILES),EC50 [nM]
1,CC=CCC(C)C(O)C1C(=O)NC(CC)C(=O)N(C)C(CSCCCCN(CC(C)C)CC(C)C)C(=O)N(C)C(CC(C)(C)O)C(=O)NC(C(C)C)C(=O)N(C)C(CC(C)C)C(=O)NC(C)C(=O)NC(C)C(=O)N(C)C(CC(C)C)C(=O)N(C)C(CC(C)C)C(=O)N(C)C(C(C)C)C(=O)N1C (stereo not drawn),40
2,CC=CCC(C)C(O)C1C(=O)NC(CC)C(=O)N(C)C(CSCCCCNCC(C)(C)C)C(=O)N(C)C(CC(C)(C)O)C(=O)NC(C(C)C)C(=O)N(C)C(CC(C)C)C(=O)NC(C)C(=O)NC(C)C(=O)N(C)C(CC(C)C)C(=O)N(C)C(CC(C)C)C(=O)N(C)C(C(C)C)C(=O)N1C (stereo not drawn),40
3,CC=CCC(C)C(O)C1C(=O)NC(CC)C(=O)N(C)C(CSCCCN2CCSCC2)C(=O)N(C)C(CC(C)(C)O)C(=O)NC(C(C)C)C(=O)N(C)C(CC(C)C)C(=O)NC(C)C(=O)NC(C)C(=O)N(C)C(CC(C)C)C(=O)N(C)C(CC(C)C)C(=O)N(C)C(C(C)C)C(=O)N1C (stereo not drawn),50
4,CC=CCC(C)C(O)C1C(=O)NC(CC)C(=O)N(C)C(CSCCCN2CCN(CCC)CC2)C(=O)N(C)C(CC(C)(C)O)C(=O)NC(C(C)C)C(=O)N(C)C(CC(C)C)C(=O)NC(C)C(=O)NC(C)C(=O)N(C)C(CC(C)C)C(=O)N(C)C(CC(C)C)C(=O)N(C)C(C(C)C)C(=O)N1C (stereo not drawn),50
